What was measured:
Type in all cases: in vivo
[1] = tested on: Puccinia recondita f. sp. tritici; test: Test B: wheat leaf rust, preventive spray on wheat seedlings; conditions: 100 = 100% disease control, 0 = no control relative to controls
In short: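 Compounds in acetone/water (50/50) with 250 ppm PEG400, sprayed to run-off on wheat seedlings at stated ppm; inoculated next day with P. recondita spores. Held 24 h saturated at 20° C., then 7 days in growth chamber at 20° C.; rating 0–100 = % disease control vs controls.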

[2] = tested on: Blumeria graminis f. sp. tritici; test: Test C: wheat powdery mildew, preventive spray on wheat seedlings; conditions: rated after 8 days, 100 = 100% disease control, 0 = no control
In short: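 Compound dissolved in acetone (3% of final volume), then suspended in 50/50 acetone/water with 250 ppm PEG400 and sprayed to run-off on wheat seedlings. Inoculated next day with B. graminis f. sp. tritici spore dust, kept 8 days at 20° C; visual rating, 100 = full control, 0 = none, relative to controls.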

Alternaria solani = test: Test F: tomato early blight, preventive spray on tomato seedlings; conditions: 100 = 100% disease control, 0 = no control
In short: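 Compounds in acetone/water (50/50) with 250 ppm PEG400, dosed in ppm, sprayed to run-off on tomato seedlings; next day inoculated with A. solani spores. Held 48 h saturated at 27° C, then 3 days at 20° C; visual rating 0–100% disease control relative to controls.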

Phakopsora pachyrhizi = test: Test D: Asian soybean rust, preventive spray on soybean seedlings; conditions: 100 = 100% disease control, 0 = no control
In short: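 Soybean seedlings sprayed to run-off with compound suspension (ppm, in 50/50 acetone/water with 250 ppm PEG400), inoculated next day with P. pachyrhizi spores, held 24 h saturated at 22°C then 8 days at 22°C. Visual rating 0-100% disease control relative to controls.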

Botrytis cinerea = test: Test E: tomato Botrytis, preventive spray on tomato seedlings; conditions: 100 = 100% disease control, 0 = no control
In short: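 Tomato seedlings sprayed to run-off with compound (ppm) in acetone/water with 250 ppm PEG400, then inoculated next day with B. cinerea spores. Held 48 h at 20 °C in saturated atmosphere, then 3 days at 24 °C. Visual rating 0–100% disease control relative to untreated controls.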

Septoria tritici = test: Test A: wheat leaf blotch, preventive spray on wheat seedlings; conditions: 100 = 100% disease control, 0 = no control relative to controls
In short: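 Compounds were suspended in acetone/water (50/50) with 250 ppm PEG400 and sprayed to run-off on wheat seedlings. The next day the seedlings were inoculated with Septoria tritici spores, held 48 h at 24 °C in saturated humidity, then 17 days at 20 °C. Disease control was rated 0–100 relative to controls.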

Row | Compound | Test B disease control rating (wheat leaf rust) ([1]; 50 ppm) [%] | Test C disease control rating (wheat powdery mildew) ([2]; 50 ppm) [%] | Test F disease control rating (tomato early blight) (Alternaria solani; 50 ppm) [%] | Test D disease control rating (Asian soybean rust) (Phakopsora pachyrhizi; 50 ppm) [%] | Test E disease control rating (tomato Botrytis) (Botrytis cinerea; 50 ppm) [%] | Test A disease control rating (wheat leaf blotch) (Septoria tritici; 50 ppm) [%] | pest or weed control at 10 ppm ([1]; 10 ppm, read-out: Test B disease control rating (wheat leaf rust)) [%] | pest or weed control at 50 ppm ([1]; 50 ppm, read-out: Test B disease control rating (wheat leaf rust)) [%] | pest or weed control at 10 ppm ([2]; Blumeria graminis, 192 h, 10 ppm, read-out: Test C disease control rating (wheat powdery mildew)) [%] | pest or weed control at 50 ppm ([2]; Blumeria graminis, 192 h, 50 ppm, read-out: Test C disease control rating (wheat powdery mildew)) [%] | pest or weed control at 10 ppm (Alternaria solani; Alternaria solani, 10 ppm, read-out: Test F disease control rating (tomato early blight)) [%] | pest or weed control at 50 ppm (Alternaria solani; Alternaria solani, 50 ppm, read-out: Test F disease control rating (tomato early blight)) [%] | pest or weed control at 10 ppm (Phakopsora pachyrhizi; Phakopsora pachyrhizi, 10 ppm, read-out: Test D disease control rating (Asian soybean rust)) [%] | pest or weed control at 50 ppm (Phakopsora pachyrhizi; Phakopsora pachyrhizi, 50 ppm, read-out: Test D disease control rating (Asian soybean rust)) [%] | pest or weed control at 10 ppm (Botrytis cinerea; Botrytis cinerea, 10 ppm, read-out: Test E disease control rating (tomato Botrytis)) [%] | pest or weed control at 50 ppm (Botrytis cinerea; Botrytis cinerea, 50 ppm, read-out: Test E disease control rating (tomato Botrytis)) [%] | pest or weed control at 10 ppm (Septoria tritici; Zymoseptoria tritici, 10 ppm, read-out: Test A disease control rating (wheat leaf blotch)) [%] | pest or weed control at 50 ppm (Septoria tritici; Zymoseptoria tritici, 50 ppm, read-out: Test A disease control rating (wheat leaf blotch)) [%]
1 | Cc1nn(C)c(Nc2c(F)cccc2[N+](=O)[O-])c1-c1c(F)cccc1F [Compound 63] | 99 | 86 | 96 | 0 | 100 | 100 |  |  |  |  |  |  |  |  |  |  |  | 
2 | COc1ccc(-c2c(C)nn(C)c2Nc2c(F)cc(F)cc2[N+](=O)[O-])c(Cl)c1 [Compound 64] | 100 | 98 | 99 | 97 | 98 | 100 |  |  |  |  |  |  |  |  |  |  |  | 
3 | COc1ccc(-c2c(C)nn(C)c2Nc2c(Cl)cc(Cl)cc2[N+](=O)[O-])c(Cl)c1 [Compound 65] | 89 | 56 | 46 | 66 | 16 | 94 |  |  |  |  |  |  |  |  |  |  |  | 
4 | COc1ccc(-c2c(C)nn(C)c2Nc2c(Cl)cc(C)cc2[N+](=O)[O-])c(Cl)c1 [Compound 66] | 100 | 98 | 96 | 97 | 98 | 100 |  |  |  |  |  |  |  |  |  |  |  | 
5 | Cc1nn(C)c(Nc2c(Cl)cc(F)cc2[N+](=O)[O-])c1-c1ccc(F)cc1F [Compound 67] | 100 | 89 | 33 | 69 | 98 | 100 |  |  |  |  |  |  |  |  |  |  |  | 
6 | Cc1nn(C)c(Nc2c(F)cccc2[N+](=O)[O-])c1-c1c(F)cc(F)cc1Cl [Compound 68, 4-(2-chloro-4,6-difluorophenyl)-N-(2-fluoro-6-nitrophenyl)-1,3-dimethyl-1H-pyrazol-5-amine] |  |  |  |  |  |  | 100 | 100 | 96 | 100 | 98 | 99 | 32 | 99 | 100 | 100 | 100 | 100
7 | Cc1nn(C)c(Nc2c(F)cccc2[N+](=O)[O-])c1-c1ccc(Cl)cc1Cl [Compound 69] | 100 | 97 | 99 | 77 | 100 | 100 |  |  |  |  |  |  |  |  |  |  |  | 
8 | COc1cc(F)c(-c2c(C)nn(C)c2Nc2c(F)cccc2[N+](=O)[O-])c(F)c1 [Compound 70] | 100 | 99 | 99 | 84 | 99 | 100 |  |  |  |  |  |  |  |  |  |  |  | 
9 | CCn1nc(C)c(-c2ccc(F)cc2Cl)c1Nc1c(F)cccc1[N+](=O)[O-] [Compound 71] | 100 | 99 | 98 | 82 | 99 | 100 |  |  |  |  |  |  |  |  |  |  |  | 

Reference: patent US12398107B2, “Fungicidal nitroanilino substituted pyrazoles” (FMC Corporation, priority 2018, dated 2025)
